Results published in US20150218594A1, “CELL-FREE AND MINIMIZED METABOLIC REACTION CASCADES FOR THE PRODUCTION OF CHEMICALS” (CLARIANT PRODUKTE (DEUTSCHLAND) GMBH, priority 2012, published 2015).

Legend:
[1] = test system: artificial enzyme cascade; test: Solvent tolerance of the artificial enzyme cascade (glucose to ethanol with increasing isobutanol); assay type: biochemical
Description: A key characteristic of cell-free systems is their pronounced tolerance against higher alcohols.
All reactions were set up in 20 ml GC vials. Reaction mixtures contained 100 mM HEPES (pH 7 at 50° C.), 0.1 mM thiamine-pyrophosphate, 2.5 mM MgCl2, 25 mM D-glucose and 5 mM NAD. […] Reaction mixtures were placed in a water bath at 50° C. and gently stirred at 100 rpm.

microbial cells = details: cited from earlier work
[2] = 20° C.; cited from earlier work
E. coli = details: recombinant fermentative production in E. coli; cited from earlier work

Row | Compound | ethanol produced in the presence of 6% (v/v) isobutanol ([1]; 6% (v/v) isobutanol, in 8 h) [mM] | isobutanol concentration up to which cell-free ethanol productivity and reaction kinetics were not significantly affected ([1]; glucose to ethanol as in Example 1, 50° C.) | isobutanol concentration that results in loss of productivity of microbial cells (microbial cells) | restricted miscibility in water [2] | isobutanol titers that induce toxic effects in the microbial production host (E. coli)
1 | CC(C)CO [isobutanol] | 1.4 | up to 4 % (v/v) | ca. 1 % v/v | 9-10% | 1-2 % (v/v)
2 | CCCCO [n-Butanol] | – | – | – | 7-8% | –
3 | CCC(C)O (stereo not shown) [2-Butanol] | – | – | – | about 12% | –
